Reference: the NIST ThermoML archive (doi:10.1016/j.jct.2008.07.005)

Experiment: xn = mol fraction of the nth substance listed
Settings: 98.93 kPa, Liquid

CC(O)CO (stereo not given) [1,2-propanediol] + O
mass density [kg/m3]
Settings	283.15 K	288.15 K	293.15 K	298.15 K	303.15 K	308.15 K
x1 = 0.002	1000.28	999.66	998.73	997.56	996.13	994.48
x1 = 0.005	1001.15	1000.5	999.55	998.32	996.87	995.17
x1 = 0.01	1002.65	1001.93	1000.93	999.63	998.12	996.34
x1 = 0.019	1005.45	1004.9	1003.81	1002.37	1000.73	998.77
x1 = 0.03	1008.94	1007.94	1006.74	1005.17	1003.41	1001.32
x1 = 0.04	1012.38	1011.16	1009.69	1008.04	1006.07	1003.85
x1 = 0.05	1015.77	1014.38	1012.66	1010.8	1008.65	1006.42
x1 = 0.065	1020.67	1018.96	1016.94	1014.74	1012.36	1010.15
x1 = 0.08	1025.18	1023.18	1020.8	1018.36	1015.78	1013.54
x1 = 0.1	1030.57	1027.89	1025.18	1022.6	1019.88	1017.51
x1 = 0.125	1035.97	1032.58	1029.58	1027.01	1024.14	1021.52
x1 = 0.1526	1039.91	1036.53	1033.34	1030.86	1028.08	1024.73
x1 = 0.17	1041.79	1038.5	1035.11	1032.86	1030.11	1026.33
x1 = 0.18	1042.67	1039.47	1035.98	1033.9	1031.1	1027.06
x1 = 0.2	1043.92	1041	1037.19	1035.6	1032.73	1027.98

OCC(O)CO [glycerol] + O
mass density [kg/m3]
Settings	283.15 K	288.15 K	293.15 K	298.15 K	303.15 K	308.15 K
x1 = 0.002	1002.15	1001.53	1000.6	999.43	998.01	996.37
x1 = 0.005	1005.76	1005.11	1004.14	1002.93	1001.48	999.81
x1 = 0.01	1011.64	1010.93	1009.9	1008.63	1007.12	1005.42
x1 = 0.019	1022.85	1022.06	1020.89	1019.51	1017.89	1016.12
x1 = 0.03	1033.4	1032.52	1031.22	1029.73	1028.03	1026.18
x1 = 0.04	1043.36	1042.38	1040.97	1039.37	1037.58	1035.66
x1 = 0.05	1052.76	1051.69	1050.15	1048.46	1046.58	1044.59
x1 = 0.065	1065.9	1064.68	1062.99	1061.17	1059.16	1057.08
x1 = 0.08	1078.01	1076.64	1074.81	1072.85	1070.74	1068.56
x1 = 0.1	1092.7	1091.17	1089.16	1087.05	1084.79	1082.51
x1 = 0.125	1109.07	1107.35	1105.15	1102.86	1100.45	1098.03
x1 = 0.1526	1124.96	1123.05	1120.68	1118.23	1115.66	1113.11
x1 = 0.17	1133.96	1131.96	1129.5	1126.96	1124.3	1121.66
x1 = 0.18	1138.83	1136.77	1134.27	1131.68	1128.97	1126.28
x1 = 0.2	1147.94	1145.78	1143.22	1140.54	1137.73	1134.94

OCCCO [propan-1,3-diol] + O
mass density [kg/m3]
Settings	283.15 K	288.15 K	293.15 K	298.15 K	303.15 K	308.15 K
x1 = 0.002	1000.12	999.49	998.61	997.63	996.05	994.51
x1 = 0.005	1000.99	1000.34	999.44	998.44	996.84	995.27
x1 = 0.01	1002.44	1001.75	1000.81	999.76	998.14	996.53
x1 = 0.019	1005.28	1004.53	1003.5	1002.37	1000.71	999
x1 = 0.03	1008.07	1007.24	1006.13	1004.91	1003.2	1001.41
x1 = 0.04	1010.8	1009.9	1008.71	1007.39	1005.63	1003.75
x1 = 0.05	1013.46	1012.49	1011.23	1009.82	1008	1006.03
x1 = 0.065	1017.32	1016.24	1014.85	1013.31	1011.4	1009.3
x1 = 0.08	1021.01	1019.75	1018.24	1016.57	1014.57	1012.35
x1 = 0.1	1025.57	1024.07	1022.38	1020.58	1018.45	1016.06
x1 = 0.125	1030.69	1028.92	1027.01	1025.02	1022.73	1020.19
x1 = 0.1526	1035.61	1033.62	1031.48	1029.18	1026.8	1024.09
x1 = 0.17	1038.35	1036.24	1033.94	1031.44	1029.04	1026.23
x1 = 0.18	1039.8	1037.62	1035.24	1032.61	1030.2	1027.36
x1 = 0.2	1042.35	1040.04	1037.56	1034.66	1032.25	1029.35

CCCO [propan-1-ol] + O
mass density [kg/m3]
Settings	283.15 K	288.15 K	293.15 K	298.15 K	303.15 K	308.15 K
x1 = 0.002	998.53	997.69	996.58	995.4	994.2	992.72
x1 = 0.005	996.91	996.06	994.95	993.76	992.54	991.05
x1 = 0.009	994.87	994	992.87	991.66	990.43	988.92
x1 = 0.01	994.38	993.49	992.36	991.14	989.92	988.4
x1 = 0.02	989.99	988.99	987.82	986.54	985.27	983.68
x1 = 0.03	986.29	985.17	983.91	982.56	981.2	979.57
x1 = 0.05	979.96	978.27	977.1	975.49	973.96	972.3
x1 = 0.065	975.01	972.88	971.86	969.94	968.38	966.41
x1 = 0.08	969.18	966.99	965.87	963.72	961.92	959.82
x1 = 0.1	960.42	958.48	957.26	954.91	952.93	950.64
x1 = 0.13	947.97	946	944.52	941.96	939.8	937.47
x1 = 0.15	940.47	938.48	936.78	934.12	931.81	929.47
x1 = 0.17	933.5	931.45	929.49	926.68	924.32	922.05
x1 = 0.1856	928.41	926.35	924.19	921.23	918.84	916.61
x1 = 0.2	923.98	921.89	919.56	916.46	914.04	911.83
